This note sets out measurements from PubChem BioAssay (NCI).

Values joined by “and” are separate entries in the source; they are usually repeats but may differ in a detail not shown here. Equal values may be shown once.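 Five compound concentrations were applied to cells in 96-well plates for 48 hours; endpoints were derived by simple linear interpolation of the resulting dose-response curve. The concentration for 50% growth inhibition is given as GI50. Definition used: TGI = concentration required for complete inhibition of growth.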

Common to all, as to assay: NCI-60 cell line screen, 48 h
The test system of experiment [1] is A549 NSCLC.
In experiment [2] the test system is MALME-3M melanoma.
The test system of experiment [3] is 786-0 renal.
Experiment [4] relates to HT29 colon.
Experiment [5] has as its system SN12C renal.
Experiment [6] has as its system M14 melanoma.
Experiment [7] has as its system CAKI-1 renal.
For experiment [8], the system named is OVCAR-3 ovarian.
The test system of experiment [9] is HOP-92 NSCLC.
Experiment [10] deals with HL-60(TB) leukemia.

In the case of `Cc1nc(NC(=O)N2CCC[C@H]2C(N)=O)sc1-c1ccnc(C(C)(C)C(F)(F)F)c1`, the GI50 was 2.94 µM and 4.74 µM in [1]; 1.8 µM and > 10 µM in experiment [2]; 11.1 µM and > 10 µM in experiment [3]; 0.488 µM and 0.477 µM in experiment [4]; 6.43 µM and > 10 µM in experiment [5]; 8.75 µM and > 10 µM in [6]. Besides, the GI50 in experiment [7] is 2.39 µM and 3.35 µM; in experiment [8], 4.16 µM and 8 µM; in experiment [9], 0.0598 µM and 0.13 µM; in experiment [10], 1.04 µM and 0.289 µM. Further, the TGI in experiment [1] is 30.9 µM and > 10 µM; in experiment [2] it was 22.4 µM and > 10 µM; in experiment [3], 64.1 µM and > 10 µM; in experiment [4], 20.8 µM and > 10 µM; in [5], over 100 µM; in experiment [6], over 82 µM. Also, the TGI is 17.8 µM and > 10 µM in [7]; 30.7 µM and > 10 µM in [8]; 1.52 µM and 2.89 µM in [9]; 37.3 µM and > 10 µM in experiment [10].

Consider `NC(CSC(c1ccccc1)(c1ccccc1)c1ccc2ccccc2c1)C(=O)O` (centres undefined), for which the GI50 in experiment [1] was 0.095 µM; in experiment [2], 1.33 µM; in [3], 0.0763 µM; in experiment [4], 0.2 µM; in experiment [5] it was 0.0874 µM; in experiment [6], 0.0211 µM. Further, the GI50 is 0.0998 µM in experiment [7], 0.0287 µM in experiment [8], 0.215 µM in [9] and 0.0493 µM in experiment [10]. The TGI is 26.4 µM in [1]; 25.4 µM in [2]; 1.19 µM in [3]; over 100 µM in experiment [4]; 18.2 µM in [5]; 0.0512 µM in experiment [6]. Further, the TGI in [7] is 34.6 µM; in experiment [8], 0.0992 µM; in experiment [9] it was 23.2 µM.

Turning to `Cn1c(=O)c2[nH]c(COc3ccc(C(C)(C)C)cc3)nc2n(C)c1=O`, the GI50 in [1] is 18.9 µM; in experiment [2], 18.2 µM; in experiment [3], 19.5 µM; in experiment [4], 29.3 µM; in experiment [5], 33.4 µM; in experiment [6] it was 15 µM. In addition, the GI50 was 12 µM in [7], 12.3 µM in experiment [8], 0.428 µM in experiment [9] and 10.6 µM in experiment [10]. The TGI in [1] is over 100 µM; in experiment [2], 58.8 µM; in [3] it was over 100 µM; in experiment [4], over 100 µM; in experiment [5], over 100 µM; in experiment [6], 41.4 µM. The TGI in experiment [7] was over 100 µM; in experiment [8] it was 33.6 µM; in experiment [9], 30.6 µM; in [10] it was 50.3 µM.

Regarding `O=[As](O)(O)c1ccc(Cc2ccc([As](=O)(O)O)cc2)cc1`, the TGI in experiment [1] stood at 3.81 µM; in experiment [2], 2.62 µM; in experiment [3], 1.29 µM; in experiment [4], 2.38 µM; in experiment [5], 2.08 µM; in experiment [6] it was 2.46 µM. For the same compound, the TGI in [7] stood at 2.78 µM; in experiment [8], 2.64 µM; in [9], 2.92 µM; in [10], 3.98 µM.

With `O=C1/C(=C/c2cccs2)CCC/C1=C\c1cccs1`, the GI50 in experiment [1] is 68.3 µM; in experiment [2] it was over 48.8 µM; in [3], 49.8 µM; in experiment [4], over 100 µM; in experiment [5], over 100 µM; in experiment [6] it was over 100 µM. Besides, the GI50 in experiment [7] is 55.8 µM; in experiment [8] it was 23.8 µM; in [9], 10.6 µM; in experiment [10] it was over 100 µM. The TGI in experiment [1], in experiment [2], in experiment [3], in experiment [4], in [5] and in [6] was over 100 µM throughout. In addition, the TGI in [7] was over 100 µM; in [8] it was over 100 µM; in experiment [9] it was 57.8 µM; in [10] it was over 100 µM.

For `COc1cc2c(cc1C)n(O)c(C)c(C(=O)C/C(=N/NC(=O)C[N+](C)(C)C)C(=O)Nc1cccc(Cl)c1C)[n+]2=O`, the TGI in [1], in experiment [2], in experiment [3], in [4], in experiment [5] and in [6] was over 100 µM throughout. Further, the TGI in experiment [7], in experiment [8], in [9] and in experiment [10] was over 100 µM throughout.

On to `Oc1ccccc1-n1c(-c2ccccc2)ccc1-c1ccccc1`, for which the GI50 in experiment [1] was 4.62 µM; in experiment [2] it was 2.9 µM; in [3] it was 13.2 µM; in experiment [4], 2.22 µM; in [5], 3.62 µM; in [6], 3.71 µM. Further, the GI50 in experiment [7] was 3.85 µM; in experiment [8], 9.54 µM; in [9] it was 1.94 µM; in [10], 5.2 µM. Further, the TGI came to 19.6 µM in [1]; 16.2 µM in experiment [2]; 26.5 µM in experiment [3]; 11 µM in [4]; 16 µM in experiment [5]; 29.2 µM in [6]. Further, the TGI in [7] was 18.1 µM; in experiment [8], 21.7 µM; in experiment [9], 8.54 µM; in experiment [10], over 100 µM.

For `CC(=O)Oc1cccc2c1C(=O)c1c(OC(C)=O)cc(C)cc1C2=O`, the TGI in experiment [1] was over 100 µM; in experiment [2], over 100 µM; in experiment [3] it was 72.5 µM; in experiment [4], over 100 µM; in experiment [5], over 100 µM; in experiment [6] it was over 100 µM. Also, the TGI in experiment [7], in experiment [8], in [9] and in experiment [10] was over 100 µM in each case.
